Here are results for six compounds from ChEMBL document CHEMBL1129027, “4'-Methyl derivatives of 5-MOP and 5-MOA: synthesis, photoreactivity, and photobiological activity” (J Med Chem, 1996).

Calls of active or inactive are those of the source. The rule behind the calls is not given here.

For assay [1], the species on record is Cavia porcellus. Nature of the assay: Compound was tested for skin photosensitizing potency in guinea pig, after exposure to 50 microg cm e-2,and 20 kJ m e-2 of UVA; Absent. Type of assay: functional, organism-based.
Another assay deals with HL-60. Nature of the assay: Compound was evaluated for cell growth inhibition against HL 60 cell line by irradiation in the presence of examined compound. The class given is functional, cell-based. As to conditions: Homo sapiens, HL-60, light or radiation study.
A further assay deals with HeLa. Description: Compound was evaluated for cell growth inhibition against HeLa cell line by irradiation in the presence of examined compound. Type of assay: functional, cell-based. The note with it: Homo sapiens, light or radiation study.
A further assay deals with A-431. Nature of the assay: Compound was evaluated for cell growth inhibition against A 431 cell line by irradiation in the presence of examined compound. The class given is functional, cell-based. The note with it: Homo sapiens, A-431, light or radiation study.
Assay [2] deals with Nucleic Acid. Nature of the assay: Binding parameters of complexes between compound and DNA. The note with it: Bos taurus. The class given is nucleic-acid assay.
In assay [3] the test system is Nucleic Acid. Description: Rate constant of the photoreaction between compound and DNA. Type of assay: nucleic-acid assay. As to conditions: Bos taurus.
Assay [4] is filed under the species Cavia porcellus. Description: Compound was tested for skin photosensitizing potency in guinea pig, after exposure to 50 microg cm e-2,and 20 kJ m e-2 of UVA; Medium. The class given is functional, organism-based.
The subject of assay [5] is Cavia porcellus. Nature of the assay: Compound was tested for skin photosensitizing potency in guinea pig, after exposure to 50 microg cm e-2,and 20 kJ m e-2 of UVA; strong(with edema). The class given is functional, organism-based.

One may read the IC50 as the concentration that inhibits the measured activity by half. For `COc1cc2occc2c2oc(=O)ccc12` [ISOBERGAPTENE], in the assay filed under Cavia porcellus [1], the Formation of erythema result is “inactive”. Also, the figures for the IC50 in the assay on HL-60, with HeLa and in the assay with A-431 were greater than 10000 nM, greater than 10000 nM and 7720 nM, respectively.

`COc1cc2occ(C)c2c2oc(=O)c(C)cc12` registered a K in the assay with Nucleic Acid [2] of 3100 M⁻¹. Besides, the Rate constant in the assay with Nucleic Acid [3] was 0.17 min⁻¹. The Formation of erythema result in the assay listed under Cavia porcellus [1] is “inactive”. In addition, the IC50 with HL-60 came to 590 nM; with HeLa, 1060 nM; in the assay with A-431, 1370 nM.

As to `COc1c2cc(C)c(=O)oc2cc2occ(C)c12`, the K with Nucleic Acid [2] turned out to be 920 M⁻¹. Further, in the assay listed under Cavia porcellus [4], the Formation of erythema result was “Medium”. Moreover, the Rate constant with Nucleic Acid [3] came out at 0.32 min⁻¹. Also, the 50% inhibitory concentration (IC50) in the assay with HL-60 is 2720 nM; in the assay on HeLa, 6830 nM; in the assay on A-431, 7750 nM.

On to `COc1c2c(C)coc2cc2oc(=O)cc(C)c12`, for which, in the assay on Nucleic Acid [2], the K was 630 M⁻¹. Besides, the Rate constant in the assay on Nucleic Acid [3] is 2.1 min⁻¹. Besides, in the assay filed under Cavia porcellus [1], the Formation of erythema entry was “inactive”. The half-inhibitory concentration (IC50) in the assay on HL-60 stood at 670 nM; in the assay on HeLa, 1760 nM; in the assay on A-431, 1350 nM.

In the assay on Nucleic Acid [2], `COc1cc2occ(C)c2c2oc(=O)cc(C)c12` came in with a K of 3700 M⁻¹. For the same compound, in the assay with Nucleic Acid [3], the Rate constant turned out to be 2.2 min⁻¹. Also, the Formation of erythema entry in the assay listed under Cavia porcellus [1] is “inactive”. The IC50 worked out at 690 nM in the assay on HL-60, 1260 nM in the assay on HeLa and 1320 nM in the assay with A-431.

Take `COc1c2occc2cc2ccc(=O)oc12` [METHOXSALEN]: the results for the IC50 in the assay with HL-60, in the assay with HeLa and in the assay with A-431 were 750 nM, 3160 nM and 2480 nM, respectively. In addition, the Formation of erythema result in the assay with Cavia porcellus [5] was “Active”.
